Measured values as given in patent publication US10294202B2, “Pyrrolidinones as herbicides” (FMC Corporation, priority 2013, dated 2019).

Legend:
[1] = system: barnyardgrass; experiment: Test A pre-/postemergence herbicide test; assay type: in vivo, Echinochloa crus-galli
How it was run: (§1)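 Greenhouse pot test with pre- and postemergence application of surfactant-containing solvent formulations. Postemergence plants were 2–10 cm, one- to two-leaf stage. Response scored visually after ~10 days, 0 (no effect) to 100 (complete control).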

[2] = system: pigweed; experiment: Test A pre-/postemergence herbicide test; assay type: in vivo, Amaranthus retroflexus
How it was run: as §1

[3] = system: sedge, umbrella; experiment: Test B flooded paddy test; assay type: in vivo, Cyperus difformis; conditions: 500 g ai/ha, Flood; scale of 0 to 100 where 0 is no effect and 100 is complete control
How it was run: (§2)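 Scoring: visual, compared with untreated controls, 0 = no effect through 100 = complete control, taken 13 to 15 days after treatment in the greenhouse. Compounds had been added to paddy water over soil flooded 3 cm deep at the plants' 2-leaf stage.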

[4] = system: wheat; experiment: Test A pre-/postemergence herbicide test; assay type: in vivo, Triticum aestivum; conditions: Postemergence
How it was run: as §1

[5] = system: barnyardgrass; experiment: Test B flooded paddy test; assay type: in vivo, Echinochloa crus-galli; conditions: 500 g ai/ha, Flood; scale of 0 to 100 where 0 is no effect and 100 is complete control
How it was run: as §2

[6] = system: blackgrass; experiment: Test A postemergence herbicide test; assay type: in vivo, Alopecurus myosuroides
How it was run: (§3)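 Blackgrass and galium grown in pots of loam soil–sand blend, treated postemergence at 2–10 cm height, one- to two-leaf stage. Plants kept in greenhouse ~10 days, then visually rated for injury against untreated controls on a 0–100 scale (0 no effect, 100 complete control).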

[7] = system: galium; experiment: Test A postemergence herbicide test; assay type: in vivo, Galium aparine
How it was run: as §3

[8] = system: ragweed; experiment: Test A pre-/postemergence herbicide test; assay type: in vivo, Ambrosia elatior
How it was run: as §1

[9] = system: ryegrass, Italian; experiment: Test A pre-/postemergence herbicide test; assay type: in vivo, Lolium multiflorum
How it was run: as §1

[10] = system: corn; experiment: Test A pre-/postemergence herbicide test; assay type: in vivo, Zea mays; conditions: Postemergence
How it was run: as §1

[11] = system: ducksalad; experiment: Test B flooded paddy test; assay type: in vivo, Heteranthera limosa; conditions: 500 g ai/ha, Flood; scale of 0 to 100 where 0 is no effect and 100 is complete control
How it was run: as §2

[12] = system: rice; experiment: Test B flooded paddy test; assay type: in vivo, Oryza sativa; conditions: 500 g ai/ha, Flood; scale of 0 to 100 where 0 is no effect and 100 is complete control
How it was run: as §2

[13] = system: kochia; experiment: Test A pre-/postemergence herbicide test; assay type: in vivo, Kochia scoparia
How it was run: as §1

[14] = system: giant foxtail; experiment: Test A pre-/postemergence herbicide test; assay type: in vivo, Setaria faberii
How it was run: as §1

[15] = Postemergence, 125 g ai/ha, visual rating on 0 to 100 scale (0 no effect, 100 complete control), approx. 10 days
[16] = Postemergence, 500 g ai/ha, 0 to 100 scale (0 no effect, 100 complete control)
[17] = Preemergence, 125 g ai/ha, 0 to 100 scale where 0 is no effect and 100 is complete control
[18] = preemergence, 500 g ai/ha, 0 to 100 scale, 0 is no effect and 100 is complete control
[19] = 125 g ai/ha, visual rating on 0 to 100 scale (0 no effect, 100 complete control), approx. 10 days
[20] = 500 g ai/ha, 0 to 100 scale (0 no effect, 100 complete control)
[21] = Preemergence, 500 g ai/ha, visual rating on 0 to 100 scale (0 no effect, 100 complete control)

Row | SMILES | Plant response rating, Barnyardgrass [1, 15] | Plant response rating, Barnyardgrass [1, 16] | Plant response rating, Barnyardgrass [1, 17] | Plant response rating, Pigweed [2, 15] | Plant response rating, Pigweed [2, 17] | Plant response rating, Sedge, Umbrella [3] | Plant response rating, Wheat [4, 19] | Plant response rating, Barnyardgrass [5] | Plant response rating, Blackgrass [6, 19] | Plant response rating, Blackgrass [6, 20] | Plant response rating, Galium [7, 19] | Plant response rating, Ragweed [8, 15] | Plant response rating, Ryegrass, Italian [9, 15] | Plant response rating, Ryegrass, Italian [9, 17] | Ryegrass, Italian plant response rating [9, 21] | Plant response rating, Corn [10, 19] | Plant response rating, Corn [10, 20] | Plant response rating, Ducksalad [11] | Plant response rating, Rice [12] | Plant response rating, Kochia [13, 15] | also measured
1 | O=C1NCC(c2ccc(Cl)s2)C1C(=O)Nc1cccc(F)c1F (stereo not shown) [Compound 294] | 60 | 90 | 70 | 0 | 0 | 0 | 20 | 20 | 20 | 30 | 0 | 0 | 0 | 0 | 30 | 0 | 0 | 98 | 0 | 30 | Plant response rating, Barnyardgrass [1, 18]: 90; Plant response rating, Pigweed [2, 16]: 0; Plant response rating, Pigweed [2, 18]: 20; Plant response rating, Wheat [4, 20]: 20; Plant response rating, Galium [7, 20]: 30; Plant response rating, Ragweed [8, 16]: 20; Plant response rating, Ragweed [8, 17]: 0; Plant response rating, Ragweed [8, 18]: 0; Plant response rating, Ryegrass, Italian [9, 16]: 20; Plant response rating, Kochia [13, 16]: 50; Plant response rating, Kochia [13, 17]: 40; Plant response rating, Kochia [13, 18]: 90; Plant response rating, Foxtail, Giant [14, 15]: 30; Plant response rating, Foxtail, Giant [14, 16]: 80; Plant response rating, Foxtail, Giant [14, 17]: 70; Plant response rating, Foxtail, Giant [14, 18]: 90
2 | O=C1NCC(c2ccc(Br)c(Br)c2)C1C(=O)Nc1cccc(F)c1F (stereo not shown) [Compound 341] | 30 | 50 | 50 | 0 | 0 | 0 | 0 | 0 | 0 | 0 | 0 | 0 | 0 | 0 | 0 | 0 | 30 | 0 | 0 | 0 | Barnyardgrass plant response rating [1, 21]: 80; Pigweed plant response rating [2, 21]: 0; Plant response rating, Ragweed [8, 17]: 0; Ragweed plant response rating [8, 21]: 0; Plant response rating, Kochia [13, 17]: 0; Kochia plant response rating [13, 21]: 0; Plant response rating, Foxtail, Giant [14, 15]: 50; Plant response rating, Foxtail, Giant [14, 16]: 70; Plant response rating, Foxtail, Giant [14, 17]: 80; Foxtail, Giant plant response rating [14, 21]: 90
3 | O=C1NCC(c2cccc(-n3cccn3)c2)C1C(=O)Nc1cccc(F)c1F (stereo not shown) [Compound 337] | 0 | 50 | 0 | 0 | 0 | 0 | 0 | 0 | 0 | 0 | 0 | 0 | 0 | 0 | 0 | 0 | 0 | 0 | 0 | 0 | Barnyardgrass plant response rating [1, 21]: 20; Pigweed plant response rating [2, 21]: 0; Plant response rating, Ragweed [8, 17]: 0; Ragweed plant response rating [8, 21]: 0; Plant response rating, Kochia [13, 17]: 0; Kochia plant response rating [13, 21]: 0; Plant response rating, Foxtail, Giant [14, 15]: 0; Plant response rating, Foxtail, Giant [14, 16]: 40; Plant response rating, Foxtail, Giant [14, 17]: 0; Foxtail, Giant plant response rating [14, 21]: 30
4 | O=C1NCC(c2ccc(Cl)s2)C1C(=O)Nc1ccccc1C(F)(F)F (stereo not shown) [Compound 293] | 50 | 70 | 20 | 0 | 0 | 0 | 0 | 35 | 0 | 10 | 20 | 0 | 0 | 0 | 0 | 0 | 0 | 95 | 0 | 0 | Plant response rating, Barnyardgrass [1, 18]: 70; Plant response rating, Pigweed [2, 16]: 0; Plant response rating, Pigweed [2, 18]: 0; Plant response rating, Wheat [4, 20]: 0; Plant response rating, Galium [7, 20]: 60; Plant response rating, Ragweed [8, 16]: 0; Plant response rating, Ryegrass, Italian [9, 16]: 0; Plant response rating, Kochia [13, 16]: 0; Plant response rating, Kochia [13, 17]: 0; Plant response rating, Kochia [13, 18]: 0; Plant response rating, Foxtail, Giant [14, 15]: 50; Plant response rating, Foxtail, Giant [14, 16]: 70; Plant response rating, Foxtail, Giant [14, 17]: 80; Plant response rating, Foxtail, Giant [14, 18]: 90
